Counter-ions that a name gives are not always drawn. Like-named read-outs stand apart in the source and are kept apart here. No end group written: not given here.
Legend:
[1] = test system: rat prostate glandular epithelium, nerves, stroma, vessels; assay: Prostate histology (H&E, Bielschowsky silver, TUNEL) in treated rats; assay type: in vivo, Sprague-Dawley rats
Experimental: (§1) Two month old Sprague-Dawley rats (n=268) weighing 200 to 300 g, housed in groups of 2-5 per cage at room temperature (24-26° C.), with standard unrestricted diet and water, were anesthetized with ether and underwent open laparoscopic injections, using sterile precautions and sterile techniques, without antibiotics, of 0.3 mL of FT 0.1-2.0 mg/mL in phosphate buffered saline (PBS) pH 7.4, administered by #26 gauge sterile needles attached to sterile syringes. The animals received a “whole gland” injection in an amount roughly 20 times the amount previously administered to humans. […] The rats were daily observed and painlessly sacrificed after post-treatment intervals of 24 hours to 12 months under either anesthesia.
Prostate glands were removed, bisected, and immersed in 10% formalin solution, and subsequently embedded in paraffin, sectioned, and stained with (1) hematoxylin-eosin (H&E); (2) Bielschowsky silver method for nerve fibers; and (3) immunohistochemical TUNEL staining. TUNEL (Terminal deoxynucleotidyl transferase (dUTP) nick end labeling) detects DNA fragmentation by labeling the 3′-hydroxyl termini in the double-stand DNA breaks generated during apoptosis. Prostate cell lines (PC3 and LNCAP) were treated with FT 0.001 or 0.25 mg/mL in 6, 24, and 48 well plates and harvested and pelleted at 0, 12, 24, and 48 hours. […] The same treated cell lines under the same conditions were also stained in vitro after treatment using Annexin V immunofluorescence methods and viewed under ultraviolet light, and cell loss in vitro was assessed quantitatively (Multitox-Fluor, Promega). […]
(§2) Apoptosis was evaluated microscopically in H&E stained sections, including rats sacrificed after 24, 48, and 72 hours, 4-8 days, and 1, 3, 6, and 12 months. […] TUNEL staining was assessed in 21 animals (72 hours; 7 days, post-treatment). Prostate volume (calculated by approximation to a sphere using the mean of 8 perpendicular diameters (2 per section at 90 degrees; on four sections) and calculations of 4/3 π(D/2)^3) were assessed in all animals and all controls. […]

rat prostate = assay: Prostate volume in rats after intraprostatic (whole gland) injection; assay type: in vivo, Sprague-Dawley rats; conditions: control injection 0.5 mL HCl in water pH 3.0-5.0, 24 hr-10 days
Experimental: as §1
(§3) Sub-groups of rats received repeated injections (2×-8×, on a once weekly basis) (Table 1).
as §2

[2] = in vivo
Excerpt: as §3

Cl [HCl, reference compound]
rats with focal ischemic or hemorrhagic infarctions and necrosis ([1]; HCl pH 3.0-5.0 injected, involving <5% of the cross-sectional area): 2/12 | Prostate Volume mm^3-Mean (SD) (rat prostate): 859.7 (278.1) mm^3

IDQQVLSRIKLEIKRCL [FT, Ile-Asp-Gln-Gln-Val-Leu-Ser-Arg-Ile-Lys-Leu-Glu-Ile-Lys-Arg-Cys-Leu]
nerves and blood vessels ([1]; all time intervals): intact | nerve histology ([1]; all time points including 6 months and 1 year): normal appearing nerves | toxic effects ([2]; dog): no toxic effects | toxic effects ([2]; rabbit): no toxic effects | toxic effects ([2]; rat): no toxic effects

From US20200061150A1, “METHOD OF INDUCING SELECTIVE PROSTATE GLANDULAR PHARMACO-ABLATION WITH SPARING OF NERVES AND PRESERVATION OF SEXUAL FUNCTION” (Nymox Corporation, priority 2018, published 2020)
